This note sets out measurements from patent US6756382B2, “Amide substituted imidazoquinolines” (3M Innovative Properties Company, priority 1999, dated 2004).

Broadly, the melting point is the temperature, or range, at which the solid turns liquid.

For series [1], the system named is interferon (α). The experiment in a line: Cytokine induction in human cells: interferon secreted by PBMCs, bioassay (A549 cells challenged with encephalomyocarditis virus). The format is cell-based. The settings on record: PBMC, incubated 18 to 24 hours, interferon determined using the bioassay method, read-out: Lowest Effective Concentration (μM) Interferon. The text has this: An in vitro human blood cell system was used to assess cytokine induction by compounds of the invention. Activity is based on the measurement of interferon and tumor necrosis factor (α) (IFN and TNF, respectively) secreted into culture media as described by Testerman et. al. In “Cytokine Induction by the Immunomodulators Imiquimod and S-27609”, Journal of Leukocyte Biology, 58, 365-372 (September, 1995).
Whole blood is collected by venipuncture into EDTA vacutainer tubes from healthy human donors. Peripheral blood mononuclear cells (PBMCs) are separated from whole blood by density gradient centrifugation using Histopaque®-1077 (Sigma Chemicals, St. Louis, Mo.). The PBMCs are suspended at 3-4×10^6 cells/mL in RPMI 1640 medium containing 10% fetal bovine serum, 2 mM L-glutamine and 1% penicillin/streptomycin solution (RPMI complete). The PBMC suspension is added to 48 well flat bottom sterile tissue culture plates (Costar, Cambridge, Mass. or Becton Dickinson Labware, Lincoln Park, N.J.) containing an equal volume of RPMI complete media containing test compound.
The compounds are solubilized in dimethyl sulfoxide (DMSO). The DMSO concentration should not exceed a final concentration of 1% for addition to the culture wells.
The solution of test compound is added at 60 μM to the first well containing RPMI complete and serial (three fold or ten fold) dilutions are made. The PBMC suspension is then added to the wells in an equal volume, bringing the test compound concentrations to the desired range. The final concentration of PBMC suspension is 1.5-2×10^6 cells/mL. The plates are covered with sterile plastic lids, mixed gently and then incubated for 18 to 24 hours at 37° C. in a 5% carbon dioxide atmosphere.
Following incubation the plates are centrifuged for 5-10 minutes at 1000 rpm (˜200×g) at 4° C. The cell culture supernatant is removed with a sterile polypropylene pipet and transferred to sterile polypropylene tubes. Samples are maintained at −30 to −70° C. until analysis. The samples are analyzed for interferon (α) by either ELISA or bioassay and for tumor necrosis factor (α) by ELISA.
Interferon is determined by bioassay using A549 human lung carcinoma cells challenged with encephalomyocarditis. The details of the bioassay method have been described by G. L. Brennan and L. H. Kronenberg in “Automated Bioassay of Interferons in Micro-test Plates”, Biotechniques, June/July, 78, 1983, incorporated herein by reference. Briefly stated the method is as follows: A549 cells are incubated with dilutions of samples or a standard interferon at 37° C. for 24 hours. The incubated cells are then infected with an inoculum of encephalomyocarditis virus. The infected cells are incubated for an additional 24 hours at 37° C. before evaluating for viral cytopathic effect. The viral cytopathic effect is quantified by staining with crystal violet followed by visual scoring of the plates. Results are expressed as alpha reference units/mL based on the value obtained for NIH Human Leukocyte IFN standard.
The table below lists the lowest concentration found to induce interferon and the lowest concentration found to induce tumor necrosis factor for each compound. […] Unless otherwise indicated, the interferon biosynthesis was determined by ELISA.

For series [2], the system named is tumor necrosis factor (α). The experiment in a line: Cytokine induction in human cells: tumor necrosis factor (α) secreted by PBMCs, ELISA. In kind it is cell-based. The settings on record: PBMC, incubated 18 to 24 hours, TNF determined by ELISA, read-out: Lowest Effective Concentration (μM) Tumor Necrosis Factor. Put shortly: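 Human donor PBMCs at final 1.5-2×10^6 cells/mL in RPMI with 10% FBS incubated 18 to 24 h at 37° C. with serially diluted compound, DMSO at most 1% final. Supernatant TNF-α measured by ELISA; value is the lowest concentration inducing TNF.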
(ELISA stands for enzyme-linked immunosorbent assay.)

Series [3] relates to interferon (α). The experiment in a line: Cytokine induction in human cells: interferon secreted by PBMCs, ELISA. Particulars: PBMC, incubated 18 to 24 hours, interferon determined by ELISA, read-out: Lowest Effective Concentration (μM) Interferon. The format is cell-based. A digest of the protocol: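 Human donor PBMCs at 1.5-2×10^6 cells/mL final in RPMI with 10% FBS, exposed to serially diluted compound (≤1% DMSO) for 18–24 h at 37 °C, 5% CO2. Supernatant interferon (α) measured by ELISA; value is lowest concentration inducing interferon.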

`Nc1nc2ccccc2c2c1ncn2CCCCNC(=O)c1ccccc1Cl` [Example 69]: the minimal effective concentration in series [1] stood at 0.12 µM; in series [2], 1.11 µM.
The matching figures for `Cc1ccc(C(=O)NCCCCn2cnc3c(N)nc4ccccc4c32)cc1` [Example 77]: 1.11 µM and 10 µM.
In the case of `COc1ccc(C(=O)NCCCCn2cnc3c(N)nc4ccccc4c32)cc1` [Example 74], the minimal effective concentration in series [1] was determined as 0.37 µM; in series [2], 10 µM.
As for `CC(C)(C)c1ccc(C(=O)NCCCCn2cnc3c(N)nc4ccccc4c32)cc1` [Example 76], the minimal effective concentration in series [1] stood at 3.33 µM.
Turning to `Nc1nc2ccccc2c2c1ncn2CCCCNC(=O)c1c(Cl)cccc1Cl` [Example 71], the results for the minimal effective concentration in series [1] and in series [2] were 0.12 µM and 3.33 µM, respectively.
As to `Nc1nc2ccccc2c2c1ncn2CCCCNC(=O)CCC1CCCC1` [Example 83], in series [1], the minimal effective concentration is 1.11 µM.
Consider `Nc1nc2ccccc2c2c1ncn2CCCCNC(=O)C1CC1` [Example 81], for which the minimal effective concentration in series [1] came to 3.33 µM; in series [2], 30 µM.
The matching figures for `Nc1nc2ccccc2c2c1ncn2CCCCNC(=O)Cc1ccccc1` [Example 78]: 0.12 µM and 10 µM.
The corresponding values for `Nc1nc2ccccc2c2c1ncn2CCCCNC(=O)/C=C/c1ccccc1` [Example 79] are 0.37 µM and greater than 30 µM.
The corresponding values for `Nc1nc2ccccc2c2c1ncn2CCCCNC(=O)c1ccc(F)cc1` [Example 72] are 0.37 µM and 10 µM.
Turning to `Nc1nc2ccccc2c2c1ncn2CCCCNC(=O)C1CCCC1` [Example 82], the minimal effective concentration in series [1] worked out at 0.12 µM; in series [2], 10 µM.
The matching figures for `CC(C)(C)CC(=O)NCCCCn1cnc2c(N)nc3ccccc3c21` [Example 80]: 1.11 µM and 10 µM.
The matching figures for `Nc1nc2ccccc2c2c1ncn2CCCCNC(=O)c1c(F)c(F)c(F)c(F)c1F` [Example 68]: 1.11 µM and 10 µM.
The matching figures for `Nc1nc2ccccc2c2c1ncn2CCCCNC(=O)c1ccc(Cl)cc1` [Example 73]: 0.37 µM and 10 µM.
Turning to `Nc1nc2ccccc2c2c1ncn2CCCCNC(=O)c1ccc(C(F)(F)F)cc1` [Example 75], the minimal effective concentration in series [1] was determined as 1.11 µM.
As to `Nc1nc2ccccc2c2c1ncn2CCCCNC(=O)C1CCCCC1` [Example 84], the values for the minimal effective concentration in series [1] and in series [2] were 0.12 µM and 10 µM, respectively.
Take `Nc1nc2ccccc2c2c1ncn2CCNC(=O)CCc1ccccc1` [Example 17, N^1-[2-(4-Amino-1H-imidazo[4,5-c]quinolin-1-yl)ethyl]-3-phenylpropanamide]: the melting point fell in the range of 254 to 256 °C. In addition, in series [3], the minimal effective concentration was 3.33 µM. The minimal effective concentration in series [2] was 10 µM.
For the molecule `Nc1nc2ccccc2c2c1ncn2CCCCNC(=O)COc1ccc(C(=O)c2ccccc2)cc1` [Example 18, N^1-[4-(4-Amino-1H-imidazo[4,5-c]quinolin-1-yl)butyl]-2-(4-benzoylphenoxy)acetamide], the melting point was 73 to 98 °C. In series [3], the minimal effective concentration amounted to 3.33 µM. Further, the minimal effective concentration in series [2] is greater than 30 µM.
The corresponding values for `N#Cc1cccc(C(=O)NCCCCn2cnc3c(N)nc4ccccc4c32)c1` [Example 33, N^1-[4-(4-Amino-1H-imidazo[4,5-c]quinolin-1-yl)butyl]-3-cyanobenzamide] are 200 to 201 °C (dec.), 0.37 µM and greater than 30 µM.
